Holding throughout (type): cell-based
One assay has as its system BHK-21 cells. Description: Anti-fibrosis activity test: inhibition of BHK-21 cell proliferation (CCK-8). The following applies: Mesocricetus auratus, BHK-21, 48 h, CCK-8, 48 hours after administration. The method, boiled down: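 Each concentration was tested in triplicate on adhered BHK-21 cells for 48 h, with pirfenidone as reference. A 2 h CCK-8 incubation preceded absorbance reading at 450 nm, and IC50 was obtained from percent inhibition versus blank.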

For assay [1], the system named is human embryonic lung fibroblast IMR-90. Put plainly: Anti-fibrosis activity test: inhibition of proliferation of human embryonic lung fibroblast IMR-90 (CCK-8). The following applies: human embryonic lung fibroblast IMR-90, CCK-8, 48 hours. The method in brief: (§1)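 48 h compound treatment of fibroblast-type cells seeded at 2×10^4 cells/mL, 37° C, 5% CO2; viability by CCK-8 (2 h, A450). Inhibition rate calculated against blank control, IC50 by curve fitting; pirfenidone served as reference.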

A further assay deals with NF-κB. Description: Immunological activity test: inhibition of NF-κB activity. The following applies: initial concentration of 30 μM; a/b isomers given as first/second symbol; read-out: IC50 (μM), inhibitory activity against NF-κB. The method, boiled down:
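Compounds were first screened for inhibition of NF-κB activity at 30 μM, with parthenolide as the positive control. IC50 values were then determined for the compounds by further analysis of the assay data.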

Assay [2] concerns cardiac fibroblast RAT-iCell-C002. Description: Anti-fibrosis activity test: inhibition of proliferation of cardiac fibroblast RAT-iCell-C002 (CCK-8). To be noted: Cardiac fibroblast, 48 h, cardiac fibroblast RAT-iCell-C002, CCK-8, 48 hours. The method, boiled down:
as §1

The subject of assay [3] is human dermal fibroblasts CCC-ESF-1. Description: Anti-fibrosis activity test: inhibition of proliferation of human dermal fibroblasts CCC-ESF-1 (CCK-8). The following applies: Fibroblast; human dermal fibroblasts CCC-ESF-1, CCK-8, 48 hours. The method in brief:
as §1

In assay [4] the test system is human fibrosarcoma cells HT-1080. Put plainly: Anti-fibrosis activity test: inhibition of proliferation of human fibrosarcoma cells HT-1080 (CCK-8). The following applies: Homo sapiens, HT-1080, 48 h, human fibrosarcoma cells HT-1080, CCK-8, 48 hours. The method, boiled down:
as §1

The test system of assay [5] is human lung fibroblasts HFL1. Put plainly: Anti-fibrosis activity test: inhibition of proliferation of human lung fibroblasts HFL1 (CCK-8). The following applies: Homo sapiens, HFL1, 48 h, human lung fibroblasts HFL1, CCK-8, 48 hours. The method, boiled down: as §1
Assay [6] relates to human hepatic stellate cells LX-2. Description: Anti-fibrosis activity test: inhibition of proliferation of human hepatic stellate cells LX-2 (CCK-8). The following applies: Homo sapiens, 48 h, human hepatic stellate cells LX-2, CCK-8, 48 hours. The method, boiled down: as §1
Assay [7] concerns mouse macrophages (RAW264.7). Description: Lipopolysaccharide-induced NO secretion in macrophages (Griess). The following applies: Mus musculus, RAW264.7, 24 h, RAW264.7, LPS 1 μg/ml, a/b isomers given as first/second symbol, read-out: IC50 (μM), inhibition of lipopolysaccharide-induced NO secretion in macrophages. The method, boiled down: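 RAW264.7 macrophages in DMEM with 10% FBS received test samples at several concentrations and were stimulated with 1 μg/ml LPS for 24 h. NO in the supernatant was measured with the Griess reagent at 548 nm, […].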
(Griess reagent forms a coloured azo dye with nitrite.)

For orientation: IC50 means the concentration at which inhibition is half-maximal. `O=C1c2c(n(CCc3ccccc3)c3ccc(F)cc3c2=O)-c2cccn21` [Compound 141a, 7-Fluoro-4-phenethyl-9H-pyrrolizino[1,2-b]quinoline-9,10(4H)-dione]: the IC50 in the assay on BHK-21 cells was 0.05 to 5 mM; in [1] it was 0.05 to 5 mM; with NF-κB it was 1 to 10 µM; in [2] it was 0.05 to 5 mM; in assay [3] it was less than 0.05 mM; in assay [4], 0.05 to 5 mM. The half-inhibitory concentration (IC50) was 0.05 to 5 mM in assay [5], 0.05 to 5 mM in assay [6] and 1 to 10 µM in assay [7].
For the compound `O=C1c2c(nc3ccc(F)cc3c2OCCc2ccccc2)-c2cccn21` [Compound 141b, 7-Fluoro-9-phenethoxy-10H-pyrrolizino[1,2-b]quinolin-10-one], the half-maximal inhibitory concentration (IC50) was 0.05 to 5 mM in the assay with BHK-21 cells; 0.05 to 5 mM in assay [1]; 0.1 to 1 µM in the assay with NF-κB; 0.05 to 5 mM in assay [2]; 5 to 20 mM in assay [3]; 0.05 to 5 mM in assay [4]. Further, the IC50 in assay [5] was 0.05 to 5 mM; in assay [6] it was 0.05 to 5 mM; in [7], 1 to 10 µM.
On to `Cn1c2c(c(=O)c3cc(F)ccc31)C(=O)n1cccc1-2` [Compound 157a, 7-Fluoro-4-methyl-9H-pyrrolizino[1,2-b]quinoline-9,10(4H)-dione], for which the concentration for half-maximal inhibition (IC50) in the assay with BHK-21 cells was 5 to 20 mM; in assay [1], 0.05 to 5 mM; in the assay with NF-κB it was 10 to 50 µM; in assay [2] it was 0.05 to 5 mM; in assay [3] it was 0.05 to 5 mM; in [4], 0.05 to 5 mM. The IC50 lay within 0.05 to 5 mM in assay [5], 0.05 to 5 mM in [6] and 0.1 to 1 µM in [7].
With `COc1c2c(nc3ccc(F)cc13)-c1cccn1C2=O` [Compound 157b, 7-fluoro-9-methoxy-10H-pyrrolizino[1,2-b]quinolin-10-one], the 50% inhibitory concentration (IC50) with BHK-21 cells was in the range of 0.05 to 5 mM; in assay [1], 0.05 to 5 mM; in the assay on NF-κB, 0.1 to 1 µM; in assay [2], 0.05 to 5 mM; in assay [3] it was 0.05 to 5 mM; in [4], 0.05 to 5 mM. The IC50 in assay [5] lay in the range of 0.05 to 5 mM; in assay [6], 0.05 to 5 mM; in assay [7], 1 to 10 µM.
Regarding `N#Cc1ccc2[nH]c3c(c(=O)c2c1)C(=O)n1cccc1-3` [Compound 222a, 9,10-Dioxo-4,10-dihydro-9H-pyrrolizino[1,2-b]quinoline-7-carbonitrile], the 50% inhibitory concentration (IC50) with BHK-21 cells was in the range of 0.05 to 5 mM; in [1], 0.05 to 5 mM; in the assay on NF-κB, 1 to 10 µM; in assay [2] it was 0.05 to 5 mM; in assay [3], 0.05 to 5 mM; in assay [4], 0.05 to 5 mM. Moreover, the IC50 in assay [5] was in the range of 0.05 to 5 mM; in [6] it was 0.05 to 5 mM; in [7], 1 to 10 µM.
As to `N#Cc1ccc2nc3c(c(O)c2c1)C(=O)n1cccc1-3` [Compound 222b, 9-hydroxy-10-oxo-10H-pyrrolizino[1,2-b]quinoline-7-carbonitrile], the concentration for half-maximal inhibition (IC50) lay in the range of 0.05 to 5 mM in the assay with BHK-21 cells; 0.05 to 5 mM in assay [1]; 1 to 10 µM with NF-κB; 0.05 to 5 mM in [2]; 0.05 to 5 mM in assay [3]; 0.05 to 5 mM in assay [4]. In addition, the values for the IC50 in assay [5], in [6] and in assay [7] were 0.05 to 5 mM, 0.05 to 5 mM and 1 to 10 µM, respectively.
As for `O=C1c2c([nH]c3ccc(Br)cc3c2=O)-c2cccn21` [Compound 246a, 7-Bromo-9H-pyrrolizino[1,2-b]quinoline-9,10(4H)-dione], the IC50 in the assay with BHK-21 cells fell in the range of 5 to 20 mM; in assay [1], 0.05 to 5 mM; in the assay on NF-κB, 1 to 10 µM; in assay [2], 0.05 to 5 mM; in assay [3], 0.05 to 5 mM; in assay [4], 0.05 to 5 mM. For the same compound, the IC50 fell in the range of 0.05 to 5 mM in assay [5], 0.05 to 5 mM in assay [6] and 1 to 10 µM in assay [7].
For the compound `O=C1c2c(nc3ccc(Br)cc3c2O)-c2cccn21` [Compound 246b, 7-bromo-9-hydroxy-10H-pyrrolizino[1,2-b]quinolin-10-one], the IC50 in the assay with BHK-21 cells lay in the range of 0.05 to 5 mM; in assay [1], 0.05 to 5 mM; in the assay on NF-κB, 1 to 10 µM; in assay [2], 0.05 to 5 mM; in assay [3] it was 0.05 to 5 mM; in assay [4] it was 0.05 to 5 mM. Further, the IC50 was in the range of 0.05 to 5 mM in assay [5], 0.05 to 5 mM in [6] and 1 to 10 µM in [7].
On to `O=C(O)Cn1c2c(c(=O)c3cc(C(F)(F)F)ccc31)C(=O)n1cccc1-2` [Compound 279a, 2-(9,10-dioxo-7-(trifluoromethyl)-9H-pyrrolizino[1,2-b]quinolin-4(10H)-yl)acetic acid], for which the IC50 fell in the range of 0.05 to 5 mM with BHK-21 cells; 0.05 to 5 mM in [1]; 1 to 10 µM with NF-κB; 0.05 to 5 mM in [2]; 0.05 to 5 mM in assay [3]; 0.05 to 5 mM in assay [4]. The values for the IC50 in assay [5], in assay [6] and in assay [7] were 0.05 to 5 mM, 0.05 to 5 mM and 1 to 10 µM, respectively.
On to `O=C(O)COc1c2c(nc3ccc(C(F)(F)F)cc13)-c1cccn1C2=O` [Compound 279b, 2-((10-Oxo-7-(trifluoromethyl)-10H-pyrrolizino[1,2-b]quinolin-9-yl)oxy)acetic acid], for which the IC50 in the assay with BHK-21 cells was in the range of 0.05 to 5 mM; in assay [1] it was 0.05 to 5 mM; in the assay on NF-κB it was 1 to 10 µM; in assay [2] it was 0.05 to 5 mM; in assay [3], 0.05 to 5 mM; in assay [4], 0.05 to 5 mM. In addition, the concentration for half-maximal inhibition (IC50) lay in the range of 0.05 to 5 mM in assay [5], 0.05 to 5 mM in assay [6] and 0.1 to 1 µM in [7].
Regarding `O=C1c2c([nH]c3ccc(C(F)(F)F)cc3c2=O)-c2cccn21` [Compound 282a, 7-(Trifluoromethyl)-9H-pyrrolizino[1,2-b]quinoline-9,10(4H)-dione], the IC50 in the assay with BHK-21 cells lay within 0.05 to 5 mM; in assay [1] it was 0.05 to 5 mM; in the assay on NF-κB it was 1 to 10 µM; in assay [2], 0.05 to 5 mM; in [3], 0.05 to 5 mM; in [4] it was 0.05 to 5 mM. The IC50 is 0.05 to 5 mM in assay [5], 0.05 to 5 mM in [6] and 1 to 10 µM in [7].
In the case of `O=C1c2c(nc3ccc(C(F)(F)F)cc3c2O)-c2cccn21` [Compound 282b, 9-hydroxy-7-(trifluoromethyl)-10H-pyrrolizino[1,2-b]quinolin-10-one], the IC50 in the assay with BHK-21 cells lay in the range of 0.05 to 5 mM; in [1], 0.05 to 5 mM; with NF-κB, 1 to 10 µM; in assay [2], 0.05 to 5 mM; in [3] it was 0.05 to 5 mM; in assay [4], 0.05 to 5 mM. Besides, the IC50 in assay [5] lay within 0.05 to 5 mM; in assay [6] it was 0.05 to 5 mM; in assay [7], 10 to 50 µM.
Take `O=C1c2c([nH]c3ccc(OC(F)(F)F)cc3c2=O)-c2cccn21` [Compound 306a, 7-(Trifluoromethoxy)-9H-pyrrolizino[1,2-b]quinoline-9,10(4H)-dione]: the IC50 in the assay on BHK-21 cells was 0.05 to 5 mM; in assay [1] it was 0.05 to 5 mM; in the assay with NF-κB, 1 to 10 µM; in assay [2] it was 0.05 to 5 mM; in [3] it was 0.05 to 5 mM; in [4], 0.05 to 5 mM. The IC50 in assay [5] was in the range of 0.05 to 5 mM; in assay [6], 0.05 to 5 mM; in assay [7] it was 1 to 10 µM.
Take `O=C1c2c(nc3ccc(OC(F)(F)F)cc3c2O)-c2cccn21` [Compound 306b, 9-hydroxy-7-(trifluoromethoxy)-10H-pyrrolizino[1,2-b]quinolin-10-one]: the IC50 in the assay with BHK-21 cells was in the range of 0.05 to 5 mM; in [1], 0.05 to 5 mM; in the assay with NF-κB, 1 to 10 µM; in [2] it was 0.05 to 5 mM; in assay [3] it was 0.05 to 5 mM; in [4] it was 0.05 to 5 mM. For the same compound, the IC50 in assay [5] was 0.05 to 5 mM; in assay [6], 0.05 to 5 mM; in assay [7] it was 0.1 to 1 µM.
Regarding `O=C1c2c([nH]c3cc(N4CCNCC4)ccc3c2=O)-c2cccn21` [Compound 319a, 6-(piperazin-1-yl)-9H-pyrrolizino[1,2-b]quinoline-9,10(4H)-dione], the IC50 in the assay on BHK-21 cells is 0.05 to 5 mM; in assay [1], 0.05 to 5 mM; in the assay on NF-κB, 1 to 10 µM; in [2], 0.05 to 5 mM; in [3], less than 0.05 mM; in assay [4], 0.05 to 5 mM. Moreover, the values for the IC50 in [5], in assay [6] and in assay [7] were 0.05 to 5 mM, 0.05 to 5 mM and 1 to 10 µM, respectively.
With `O=C1c2c(nc3cc(N4CCNCC4)ccc3c2O)-c2cccn21` [Compound 319b, 9-Hydroxy-6-(piperazin-1-yl)-10H-pyrrolizino[1,2-b]quinolin-10-one], the IC50 in the assay on BHK-21 cells was 0.05 to 5 mM; in [1], 0.05 to 5 mM; with NF-κB, 1 to 10 µM; in [2], 0.05 to 5 mM; in assay [3], less than 0.05 mM; in assay [4] it was 0.05 to 5 mM. Further, the IC50 in assay [5] lay within 0.05 to 5 mM; in assay [6] it was 0.05 to 5 mM; in [7] it was 1 to 10 µM.

The values above are taken from patent US11040028B2, “Penicinotam derivative, preparation method and use thereof” (OCEAN UNIVERSITY OF CHINA, priority 2017, dated 2021).
